Tests used:
[1] = target: Phosphatidylinositol 4,5-bisphosphate 3-kinase catalytic subunit beta isoform (Homo sapiens, UniProt P42338); assay: Inhibition of PI3Kbeta (unknown origin) pre-incubated for 20 mins before phosphatidylinositol 4, 5-bisphosphate substrate addition by kinase-glo plus luminescence assay
[2] = target: Phosphatidylinositol 4-kinase alpha (Homo sapiens, UniProt P42356); assay: Inhibition of N-terminal FLAG-tagged human full length recombinant PI4K3alpha using D-myo-phosphatidylinositol substrate and ATP incubated for 45 mins by ADP-Glo kinase Assay
Chain of Phosphatidylinositol 4-kinase alpha (P42356 whole entry, canonical isoform): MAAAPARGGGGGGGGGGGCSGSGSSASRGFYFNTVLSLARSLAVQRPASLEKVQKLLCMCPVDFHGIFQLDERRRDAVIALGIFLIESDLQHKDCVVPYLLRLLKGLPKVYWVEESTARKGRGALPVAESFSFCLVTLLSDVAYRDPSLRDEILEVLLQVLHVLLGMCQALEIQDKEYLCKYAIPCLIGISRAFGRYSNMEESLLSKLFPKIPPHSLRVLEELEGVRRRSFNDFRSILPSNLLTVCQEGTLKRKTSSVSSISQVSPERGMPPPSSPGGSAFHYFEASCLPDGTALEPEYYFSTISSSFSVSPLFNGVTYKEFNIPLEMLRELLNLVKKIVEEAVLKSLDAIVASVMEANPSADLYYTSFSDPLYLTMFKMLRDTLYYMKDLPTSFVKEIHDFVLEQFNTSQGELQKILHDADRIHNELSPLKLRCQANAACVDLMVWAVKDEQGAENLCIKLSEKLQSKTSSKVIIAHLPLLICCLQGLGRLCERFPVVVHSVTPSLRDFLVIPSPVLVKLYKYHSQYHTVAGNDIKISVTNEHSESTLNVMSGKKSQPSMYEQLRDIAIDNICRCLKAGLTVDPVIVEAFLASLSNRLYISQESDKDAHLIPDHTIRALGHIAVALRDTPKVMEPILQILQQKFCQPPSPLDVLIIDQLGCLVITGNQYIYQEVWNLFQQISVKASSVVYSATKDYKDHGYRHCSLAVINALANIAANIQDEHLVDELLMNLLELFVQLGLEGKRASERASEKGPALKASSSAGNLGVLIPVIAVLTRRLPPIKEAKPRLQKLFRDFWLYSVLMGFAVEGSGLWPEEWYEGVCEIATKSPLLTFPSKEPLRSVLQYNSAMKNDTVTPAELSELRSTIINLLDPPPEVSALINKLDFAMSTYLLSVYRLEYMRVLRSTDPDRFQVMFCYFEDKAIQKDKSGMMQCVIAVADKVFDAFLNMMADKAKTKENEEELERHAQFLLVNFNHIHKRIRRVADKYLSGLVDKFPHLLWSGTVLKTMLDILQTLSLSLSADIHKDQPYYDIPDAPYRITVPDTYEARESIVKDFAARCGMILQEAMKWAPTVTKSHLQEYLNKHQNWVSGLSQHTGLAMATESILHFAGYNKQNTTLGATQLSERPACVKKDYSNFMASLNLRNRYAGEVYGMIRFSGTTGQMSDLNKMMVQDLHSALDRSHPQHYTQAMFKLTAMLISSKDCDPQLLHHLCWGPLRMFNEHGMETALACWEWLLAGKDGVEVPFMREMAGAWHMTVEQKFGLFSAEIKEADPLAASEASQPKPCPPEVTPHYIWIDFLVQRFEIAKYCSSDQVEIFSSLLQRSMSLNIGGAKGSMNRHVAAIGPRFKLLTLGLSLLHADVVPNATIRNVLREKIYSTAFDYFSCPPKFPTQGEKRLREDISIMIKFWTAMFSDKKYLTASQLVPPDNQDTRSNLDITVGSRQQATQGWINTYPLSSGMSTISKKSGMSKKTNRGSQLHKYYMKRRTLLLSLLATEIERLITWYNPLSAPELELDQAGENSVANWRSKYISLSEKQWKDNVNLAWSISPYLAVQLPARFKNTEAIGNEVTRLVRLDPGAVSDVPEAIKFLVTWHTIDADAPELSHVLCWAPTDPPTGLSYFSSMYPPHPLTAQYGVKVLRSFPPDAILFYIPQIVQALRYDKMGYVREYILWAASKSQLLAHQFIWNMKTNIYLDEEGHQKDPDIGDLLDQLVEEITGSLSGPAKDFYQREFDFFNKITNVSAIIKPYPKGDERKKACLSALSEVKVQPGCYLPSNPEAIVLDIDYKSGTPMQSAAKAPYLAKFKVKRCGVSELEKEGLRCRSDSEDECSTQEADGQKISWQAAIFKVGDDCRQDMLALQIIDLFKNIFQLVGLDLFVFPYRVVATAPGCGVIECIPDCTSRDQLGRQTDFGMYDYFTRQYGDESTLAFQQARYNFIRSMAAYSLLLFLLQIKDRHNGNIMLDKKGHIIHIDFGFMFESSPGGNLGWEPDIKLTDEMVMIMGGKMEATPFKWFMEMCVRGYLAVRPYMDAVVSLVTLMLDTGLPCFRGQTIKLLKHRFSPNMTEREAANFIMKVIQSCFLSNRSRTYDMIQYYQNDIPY

[3] = target: Phosphatidylinositol 4,5-bisphosphate 3-kinase catalytic subunit alpha isoform (Homo sapiens, UniProt P42336); assay: Inhibition of PI3Kalpha (unknown origin) pre-incubated for 20 mins before phosphatidylinositol 4, 5-bisphosphate substrate addition by kinase-glo plus luminescence assay
[4] = target: Phosphatidylinositol 4-kinase beta (Homo sapiens, UniProt Q9UBF8); assay: Inhibition of N-terminal GST-tagged human full length recombinant PI4K3beta expressed in Sf9 cells using D-myo-phosphatidylinositol substrate and ATP incubated for 45 mins by ADP-Glo kinase Assay
Chain of Phosphatidylinositol 4-kinase beta (Q9UBF8 whole entry, canonical isoform): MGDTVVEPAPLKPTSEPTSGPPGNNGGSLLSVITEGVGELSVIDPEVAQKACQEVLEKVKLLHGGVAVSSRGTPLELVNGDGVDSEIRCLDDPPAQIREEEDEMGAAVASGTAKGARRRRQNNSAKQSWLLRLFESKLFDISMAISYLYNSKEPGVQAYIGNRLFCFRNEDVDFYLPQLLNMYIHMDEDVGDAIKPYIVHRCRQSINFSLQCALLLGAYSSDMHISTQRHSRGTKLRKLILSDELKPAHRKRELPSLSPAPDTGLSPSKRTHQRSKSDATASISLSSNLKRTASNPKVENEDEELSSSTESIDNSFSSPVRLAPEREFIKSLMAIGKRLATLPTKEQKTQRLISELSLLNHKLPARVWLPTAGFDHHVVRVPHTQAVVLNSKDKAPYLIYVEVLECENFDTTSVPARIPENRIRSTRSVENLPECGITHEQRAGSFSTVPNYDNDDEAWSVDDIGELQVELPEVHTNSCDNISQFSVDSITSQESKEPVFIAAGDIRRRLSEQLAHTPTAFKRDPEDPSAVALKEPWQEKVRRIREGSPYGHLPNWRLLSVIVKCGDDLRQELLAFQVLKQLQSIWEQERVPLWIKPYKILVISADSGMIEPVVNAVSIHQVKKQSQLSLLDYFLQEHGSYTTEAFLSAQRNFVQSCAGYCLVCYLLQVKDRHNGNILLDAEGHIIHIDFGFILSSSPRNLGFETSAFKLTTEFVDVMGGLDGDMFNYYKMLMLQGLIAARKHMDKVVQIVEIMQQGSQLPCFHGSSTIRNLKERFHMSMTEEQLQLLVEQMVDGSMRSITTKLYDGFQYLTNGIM

[5] = target: Phosphatidylinositol 4,5-bisphosphate 3-kinase catalytic subunit gamma isoform (Homo sapiens, UniProt P48736); assay: Inhibition of PI3Kgamma (unknown origin) pre-incubated for 20 mins before phosphatidylinositol 4, 5-bisphosphate substrate addition by kinase-glo plus luminescence assay
Chain of Phosphatidylinositol 4,5-bisphosphate 3-kinase catalytic subunit gamma isoform (P48736 whole entry, canonical isoform): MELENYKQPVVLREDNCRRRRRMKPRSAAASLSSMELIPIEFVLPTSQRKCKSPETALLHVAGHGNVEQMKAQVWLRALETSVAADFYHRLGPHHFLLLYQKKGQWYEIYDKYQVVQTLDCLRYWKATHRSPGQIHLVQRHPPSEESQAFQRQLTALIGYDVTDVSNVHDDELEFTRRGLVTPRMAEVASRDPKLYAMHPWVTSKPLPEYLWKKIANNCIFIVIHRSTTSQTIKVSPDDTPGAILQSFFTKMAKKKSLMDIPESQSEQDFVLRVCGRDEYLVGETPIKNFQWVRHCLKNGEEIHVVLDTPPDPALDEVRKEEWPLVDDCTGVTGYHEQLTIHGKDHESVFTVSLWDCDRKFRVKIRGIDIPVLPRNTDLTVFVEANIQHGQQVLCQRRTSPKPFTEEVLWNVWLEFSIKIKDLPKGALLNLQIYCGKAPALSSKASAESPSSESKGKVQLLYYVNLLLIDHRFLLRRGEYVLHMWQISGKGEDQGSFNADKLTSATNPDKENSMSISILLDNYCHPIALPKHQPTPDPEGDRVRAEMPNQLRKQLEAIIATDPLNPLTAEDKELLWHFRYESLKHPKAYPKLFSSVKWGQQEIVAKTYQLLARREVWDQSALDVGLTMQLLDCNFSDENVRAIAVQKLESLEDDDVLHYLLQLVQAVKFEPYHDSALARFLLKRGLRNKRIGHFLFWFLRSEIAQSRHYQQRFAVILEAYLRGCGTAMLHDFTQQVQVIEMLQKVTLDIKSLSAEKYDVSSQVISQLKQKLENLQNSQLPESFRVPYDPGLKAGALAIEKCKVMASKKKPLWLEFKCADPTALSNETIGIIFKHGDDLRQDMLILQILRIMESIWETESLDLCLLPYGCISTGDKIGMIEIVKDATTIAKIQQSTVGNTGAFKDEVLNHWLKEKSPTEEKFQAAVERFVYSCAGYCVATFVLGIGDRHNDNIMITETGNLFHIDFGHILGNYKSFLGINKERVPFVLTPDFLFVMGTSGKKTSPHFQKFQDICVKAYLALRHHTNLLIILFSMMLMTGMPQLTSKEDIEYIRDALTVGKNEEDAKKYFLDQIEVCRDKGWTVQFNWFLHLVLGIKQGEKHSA

[6] = target: T1, Phosphatidylinositol 4,5-bisphosphate 3-kinase catalytic subunit delta isoform (Homo sapiens, UniProt O00329); assay: Inhibition of PI3Kdelta (unknown origin) pre-incubated for 20 mins before phosphatidylinositol 4, 5-bisphosphate substrate addition by kinase-glo plus luminescence assay
T1 sequence (O00329 whole entry): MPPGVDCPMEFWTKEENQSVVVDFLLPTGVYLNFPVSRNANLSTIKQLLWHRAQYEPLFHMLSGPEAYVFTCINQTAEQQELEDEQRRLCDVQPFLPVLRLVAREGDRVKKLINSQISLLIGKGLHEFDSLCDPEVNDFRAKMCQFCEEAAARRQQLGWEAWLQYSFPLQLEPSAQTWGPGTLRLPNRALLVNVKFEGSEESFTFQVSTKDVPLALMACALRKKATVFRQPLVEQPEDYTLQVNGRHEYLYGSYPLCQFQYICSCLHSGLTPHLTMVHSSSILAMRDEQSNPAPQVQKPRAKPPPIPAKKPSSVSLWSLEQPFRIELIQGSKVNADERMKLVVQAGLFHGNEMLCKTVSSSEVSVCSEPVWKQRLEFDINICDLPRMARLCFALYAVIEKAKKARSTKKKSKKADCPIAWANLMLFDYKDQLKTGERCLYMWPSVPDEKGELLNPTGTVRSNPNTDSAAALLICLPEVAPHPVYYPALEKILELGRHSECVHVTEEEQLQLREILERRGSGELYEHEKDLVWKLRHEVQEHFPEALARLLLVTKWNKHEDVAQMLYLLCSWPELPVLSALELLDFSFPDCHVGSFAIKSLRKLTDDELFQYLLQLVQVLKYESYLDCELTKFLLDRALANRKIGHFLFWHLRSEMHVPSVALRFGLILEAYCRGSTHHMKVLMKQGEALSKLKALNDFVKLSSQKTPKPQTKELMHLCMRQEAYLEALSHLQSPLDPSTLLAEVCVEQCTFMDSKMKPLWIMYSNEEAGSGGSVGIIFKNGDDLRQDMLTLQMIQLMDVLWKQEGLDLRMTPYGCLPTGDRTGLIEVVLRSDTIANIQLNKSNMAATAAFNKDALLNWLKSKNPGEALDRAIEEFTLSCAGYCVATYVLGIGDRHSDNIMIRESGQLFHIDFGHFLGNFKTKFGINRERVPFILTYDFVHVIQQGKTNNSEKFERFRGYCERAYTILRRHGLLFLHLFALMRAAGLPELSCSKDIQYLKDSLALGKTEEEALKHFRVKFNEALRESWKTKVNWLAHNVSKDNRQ

[7] = target: Phosphatidylinositol 4-phosphate 5-kinase type-1 gamma (Homo sapiens, UniProt O60331); assay: Inhibition of PIP5K1C (unknown origin) using D-myo-phosphatidylinositol 4-phosphate substrate and ATP by ADP-Glo kinase Assay
[8] = Inhibition of PI4K3alpha in mouse NIH3T3 cells co-expressing PDGFRbeta receptor assessed as inhibition of PDGF-induced IP1 accumulation incubated for 30 mins by HTRF based assay; assay type: cell-based; conditions: NIH3T3, 0.5 h

Chain of Phosphatidylinositol 4,5-bisphosphate 3-kinase catalytic subunit beta isoform (P42338 whole entry, canonical isoform): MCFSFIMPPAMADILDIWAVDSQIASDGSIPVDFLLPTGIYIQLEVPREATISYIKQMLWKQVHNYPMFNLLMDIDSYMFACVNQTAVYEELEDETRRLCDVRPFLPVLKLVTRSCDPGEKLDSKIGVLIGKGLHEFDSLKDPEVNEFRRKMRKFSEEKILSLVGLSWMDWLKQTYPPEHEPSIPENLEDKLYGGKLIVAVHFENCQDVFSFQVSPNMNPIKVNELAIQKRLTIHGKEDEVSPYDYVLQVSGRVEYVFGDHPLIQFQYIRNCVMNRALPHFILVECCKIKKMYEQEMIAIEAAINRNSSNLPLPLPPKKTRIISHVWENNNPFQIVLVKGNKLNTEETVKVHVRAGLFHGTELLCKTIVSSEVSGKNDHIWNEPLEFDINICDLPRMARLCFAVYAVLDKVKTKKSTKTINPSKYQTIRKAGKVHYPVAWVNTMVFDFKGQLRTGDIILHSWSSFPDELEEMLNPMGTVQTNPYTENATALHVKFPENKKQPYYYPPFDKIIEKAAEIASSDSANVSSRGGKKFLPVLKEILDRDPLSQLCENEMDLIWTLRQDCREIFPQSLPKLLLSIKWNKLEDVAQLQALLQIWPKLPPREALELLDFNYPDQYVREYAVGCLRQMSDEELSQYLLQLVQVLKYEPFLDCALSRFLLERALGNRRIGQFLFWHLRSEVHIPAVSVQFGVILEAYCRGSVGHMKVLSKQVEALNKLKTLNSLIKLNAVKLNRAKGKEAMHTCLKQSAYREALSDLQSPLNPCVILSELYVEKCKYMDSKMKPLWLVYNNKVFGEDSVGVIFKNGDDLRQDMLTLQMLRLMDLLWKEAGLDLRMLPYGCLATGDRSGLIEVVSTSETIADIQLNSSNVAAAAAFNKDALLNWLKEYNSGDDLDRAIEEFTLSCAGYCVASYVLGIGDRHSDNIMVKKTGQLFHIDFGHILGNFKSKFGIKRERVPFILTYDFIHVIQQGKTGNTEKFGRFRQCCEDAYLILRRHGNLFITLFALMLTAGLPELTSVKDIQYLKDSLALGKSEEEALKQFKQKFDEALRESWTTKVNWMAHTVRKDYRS

IC50 [1] [nM] | IC50 [2] [nM] | IC50 [3] [nM] | IC50 [4] [nM] | IC50 [5] [nM] | IC50 [6] [nM] | IC50 [7] [nM] | IC50 [8] [nM] | SMILES
> 200000 | 7.94 | > 200000 | 316 | 63100 | > 200000 | > 100000 | 631 | C[C@@H](Nc1nc2ccc(-c3ccn(CC4CC4)c(=O)c3)cc2s1)C1CCOCC1
> 200000 | 2 | 79400 | 631 | 50100 | > 200000 | > 100000 | 631 | O=c1cc(-c2ccc3nc(NCC4CCS(=O)(=O)CC4)sc3c2)ccn1CC1CC1
> 200000 | 1 | 100000 | 251 | 10000 | > 79400 |  | 316 | O=c1cc(-c2ccc3nc(NC[C@H]4CC[C@H](C(=O)O)CC4)sc3c2)ccn1CC1CC1

More lines, now with the values behind:

SMILES | IC50 [1] [nM] | IC50 [2] [nM] | IC50 [3] [nM] | IC50 [4] [nM] | IC50 [5] [nM] | IC50 [6] [nM] | IC50 [7] [nM] | IC50 [8] [nM]
CCOc1ccc(-c2ccc3nc(N)sc3c2)cn1 | 6310 | 158 | 1580 | 631 | 2000 | 3980 | > 100000 | 
CCSc1ccc(-c2ccc3nc(N)sc3c2)cn1 | 5010 | 100 | 1260 | 631 | 1000 | 2000 | > 100000 | 
Nc1nc2ccc(-c3ccn(CC4CC4)c(=O)c3)cc2s1 | > 126000 | 6.31 | 6310 | 1580 | 1580 | 12600 | > 79400 | 501
O=c1cc(-c2ccc3nc(NCC4CCOCC4)sc3c2)ccn1CC1CC1 | > 200000 | 5.01 | > 200000 | 398 | 15800 | 100000 | > 100000 | 794
C[C@H](Nc1nc2ccc(-c3ccn(CC4CC4)c(=O)c3)cc2s1)C1CCOCC1 | > 200000 | 39.8 | > 200000 | 2510 | > 200000 | > 200000 | 25100 | 7940
